Values of other authors, collected in US20250205506A1, “Treatment of viral infection” (priority 2023, published 2025).

Tests used:
[1] = test system: recurrent herpes labialis; settings: for Reduction of healing time: tablets, otherwise healthy people
herpes infections = settings: orally administered; red light from a HeNe laser
herpes zoster = settings: intravenously administered; golden light (565 nm yellow + 630 nm red) or red light to the affected area

Row | SMILES | Reduction of healing time [1] | Combined effect with red light compared to acyclovir alone (herpes infections) | Combined effect with light compared to acyclovir alone (herpes zoster) | Preventative treatment of herpes ([1]; taken once daily)
1 | Nc1nc2c(ncn2COCCO)c(=O)[nH]1 [acyclovir, 9-(2-hydroxyethoxymethyl) guanine] | reduce healing time by about one day | improvements over acyclovir alone | improvement over acyclovir alone | –
2 | CC(=O)OCC(CCn1cnc2cnc(N)nc21)COC(C)=O [famciclovir] | reduce healing time by about one day | – | – | –
3 | CC(C)[C@H](N)C(=O)OCCOCn1cnc2c(=O)[nH]c(N)nc21 [valacyclovir] | reduce healing time by about one day | – | – | effective preventative treatment for herpes reducing frequency and severity of outbreaks
